Data: patent US20110172296A1, “MODULATION OF TRANSFORMING GROWTH FACTOR-BETA 1 EXPRESSION” (priority 2010, published 2011)
Where “and” joins values, the source holds several entries; their conditions need not be identical. Equal entries are not always repeated. e = 2'-O-(2-methoxyethyl) (MOE); d = 2'-deoxy (DNA)

Tests used:
[1] = system: BALB/c mice; assay: Tolerability in BALB/c mice: liver, kidney and spleen weights (Example 8); format: in vivo, mouse
Method: The mice were sacrificed 2 days after the last administration and liver, spleen and kidney weights were measured. Plasma transaminase levels were also evaluated.
The weights of liver, kidney and spleen of the mice were measured after 4 weeks and liver weights are presented in Table 10 as a percentage change compared to the corresponding weights in the PBS control. The percentage changes in kidney and spleen weight in the treated mice compared to the PBS control were negligible and are not shown.

[2] = system: human TGF-beta1 mRNA; assay: Antisense inhibition of human TGF-beta1 mRNA in HuVEC cells, single 10 nM dose, Lipofectamine 2000 (Example 2); format: cell-based
Outline: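 HuVEC cells (5,000/well) transfected with 10 nM 2-13-5 MOE gapmer (phosphorothioate, 5-methylcytosine) via Lipofectamine 2000 for 4 h, then recovered ~24 h. mRNA measured by qRT-PCR, normalized to RIBOGREEN total RNA; percent inhibition versus untreated cells.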

[3] = system: human TGF-beta1 mRNA; assay: Dose-dependent antisense inhibition of human TGF-beta1 in HuVEC cells, Lipofectamine 2000, 0.9375-30 nM (Example 3); format: cell-based; settings: Lipofectamine 2000
Method: Cells were plated at a density of 5,000 cells per well and transfected using Lipofectamine™ 2000 reagent with 0.9375 nM, 1.875 nM, 3.75 nM, 7.5 nM, 15 nM, and 30 nM concentrations of antisense oligonucleotide for 4 hours, as specified in Table 3. After a recovery period of approximately 16 hours, RNA was isolated from the cells and TGF-beta1 mRNA levels were measured by quantitative real-time PCR. Human TGF-beta1 primer probe set RTS 2980 (forward sequence CTCTCCGACCTGCCACAGA, SEQ ID NO: 160; reverse sequence […], SEQ ID NO: 53; probe sequence CCCTATTCAAGACCACCCACCTTCTGGTX, SEQ ID NO: 161) was used to measure mRNA levels. TGF-beta1 mRNA levels were adjusted according to total RNA content, as measured by RIBOGREEN®. Results are presented as percent inhibition of TGF-beta1, relative to untreated control cells.

[4] = system: human TGF-beta1 mRNA; assay: Dose-dependent antisense inhibition of human TGF-beta1 in HuVEC cells, Lipofectamine 2000, 0.3292-80 nM, comparison with oligos of U.S. Pat. No. 6,436,909 (Example 4); format: cell-based
Method: The dose-dependent antisense inhibition potential of these gapmers was compared with that of Oligo IDs 104992 and 1138498 from U.S. Pat. No. 6,436,909. Cells were plated at a density of 5,000 cells per well and transfected using Lipofectamine™ 2000 reagent with 0.3292 nM, 0.9877 nM, 2.963 nM, 8.8889 nM, 26.6667 nM, and 80 nM concentrations of antisense oligonucleotide for 4 hours, as specified in Table 4. After a recovery period of approximately 16 hours, RNA was isolated from the cells and TGF-beta1 mRNA levels were measured by quantitative real-time PCR. Human TGF-beta1 primer probe set RTS 2980 was used to measure mRNA levels. TGF-beta1 mRNA levels were adjusted according to total RNA content, as measured by RIBOGREEN®. Results are presented as percent inhibition of TGF-beta1, relative to untreated control cells. […] All the antisense oligonucleotides in Table 4 target human TGF-beta1 mRNA (SEQ ID NO: 1).

[5] = system: human TGF-beta1 mRNA; assay: Dose-dependent confirmation of antisense inhibition of human TGF-beta1 in HuVEC cells after large-scale synthesis, Lipofectamine 2000, 0.007-15 nM (Example 5); format: cell-based; settings: for percent inhibition of TGF-beta1: Lipofectamine 2000
Method: Cells were plated at a density of 5,000 cells per well and transfected using Lipofectamine™ 2000 reagent with 0.007 nM, 0.021 nM, 0.062 nM, 0.185 nM, 0.556 nM, 1.667 nM, 5 nM, and 15 nM concentrations of antisense oligonucleotide for 4 hours, as specified in Table 5. After a recovery period of approximately 16 hours, RNA was isolated from the cells and TGF-beta1 mRNA levels were measured by quantitative real-time PCR. Human TGF-beta1 primer probe set RTS 2980 was used to measure mRNA levels. TGF-beta1 mRNA levels were adjusted according to total RNA content, as measured by RIBOGREEN®. Results are presented as percent inhibition of TGF-beta1, relative to untreated control cells.

[6] = system: human TGF-beta1 mRNA; assay: Dose-dependent confirmation of antisense inhibition of human TGF-beta1 in HuVEC cells, electroporation (Example 6); format: cell-based
Method: The gapmers from Example 5 (see Table 5) were also tested at various doses in HuVEC cells using electroporation as the transfection reagent. Cells were plated at a density of 20,000 cells per well and transfected using electroporation with 0.15625 nM, 0.3125 nM, 0.625 nM, 1.25 nM, 2.5 nM, 5 nM, 10 nM, and 20 nM concentrations of antisense oligonucleotide for 4 hours, as specified in Table 6. After a recovery period of approximately 16 hours, RNA was isolated from the cells and TGF-beta1 mRNA levels were measured by quantitative real-time PCR. TGF-beta1 mRNA levels were adjusted according to total RNA content, as measured by RIBOGREEN®. Results are presented as percent inhibition of TGF-beta1, relative to untreated control cells.

[7] = system: BALB/c mice; settings: mouse, in vivo
Method: (§1) These gapmer oligonucleotides were designed to target human TGF-beta1 and have varying degrees of mismatch with murine TGF-beta1 sequence, as shown in Table 1. Oligo ID Nos. 413982 and 414040 have greater than 3 mismatches to the murine TGF-beta1 sequence. Oligo ID No. 414035 has 2 mismatches to murine TGF-beta1. Oligo ID No. 414036 has no mismatches to murine TGF-beta1.
(§2) BALB/c mice were injected with 25 mg/kg or 50 mg/kg of Oligo ID Nos. 413982, 414035, 414036, or 414040 twice a week for 4 weeks. A control group of mice was injected with phosphate buffered saline (PBS) twice a week for 4 weeks. Plasma transaminase levels were evaluated bi-weekly.
(§3) To evaluate the impact of TGF-beta1 antisense oligonucleotides on the hepatic function of mice described above, plasma concentrations of transaminases were measured using an automated clinical chemistry analyzer (Hitachi Olympus AU400e, Melville, N.Y.).

[8] = system: BALB/c mice; assay: Tolerability in BALB/c mice: plasma transaminases ALT and AST (Example 7); settings: for aspartate transaminase levels: plasma
Method: as §1, §2, §3

105204 (antisense GTCCACCATTAGCACGCGGG; chemistry not given here) [compound 105204]
Liver % Weight change relative to PBS control ([1]; 25 mg/kg twice a week for 4 weeks): +28% | Liver % Weight change relative to PBS control ([1]; 50 mg/kg twice a week for 4 weeks): +73% | increase in liver weight ([1]; 25 or 50 mg/kg twice a week for 4 weeks, vs PBS control): > 70%

413982 (antisense GCCTCCGGCTCCCAGCGGCA; sugars from the 5' end e2 d13 e5, backbone and methylation of C not given here) [compound 413982]
% inhibition ([2]; 10 nM oligonucleotide, HuVEC, relative to untreated control cells, gapmers targeted to SEQ ID NO: 1): 88% | inhibition of a TGF-beta1 mRNA ([2]; threshold lists of Oligo IDs, 10 nM): 60% and 65% and 70% and 75% and 80% and 85% | percent inhibition of TGF-beta1 ([3]; 0.9375 nM): 56% | percent inhibition of TGF-beta1 ([3]; 1.875 nM): 77% | percent inhibition of TGF-beta1 ([3]; 3.75 nM): 88% | percent inhibition of TGF-beta1 ([3]; 7.5 nM): 95% | percent inhibition of TGF-beta1 ([3]; 15 nM): 96% | percent inhibition of TGF-beta1 ([3]; 30 nM): 97% | percent inhibition of TGF-beta1 ([4]; 0.3292 nM): 76% | percent inhibition of TGF-beta1 ([4]; 0.9877 nM): 87% | percent inhibition of TGF-beta1 ([4]; 2.963 nM): 91% | percent inhibition of TGF-beta1 ([4]; 8.8889 nM): 95% | percent inhibition of TGF-beta1 ([4]; 26.6667 nM): 95% | percent inhibition of TGF-beta1 ([4]; 80.0 nM): 93% | percent inhibition of TGF-beta1 ([5]; 0.007 nM): 0% | percent inhibition of TGF-beta1 ([5]; 0.021 nM): 14% | percent inhibition of TGF-beta1 ([5]; 0.062 nM): 31% | percent inhibition of TGF-beta1 ([5]; 0.185 nM): 56% | percent inhibition of TGF-beta1 ([5]; 0.556 nM): 71% | percent inhibition of TGF-beta1 ([5]; 1.667 nM): 79% | percent inhibition of TGF-beta1 ([5]; 5 nM): 89% | percent inhibition of TGF-beta1 ([5]; 15 nM): 92% | IC50 ([5]; Lipofectamine 2000, Example 5): 0.24 nM | percent inhibition of TGF-beta1 mRNA relative to untreated control cells ([6]; 0.15625 nM oligonucleotide): 26% | percent inhibition of TGF-beta1 mRNA relative to untreated control cells ([6]; 0.3125 nM oligonucleotide): 32% | percent inhibition of TGF-beta1 mRNA relative to untreated control cells ([6]; 0.625 nM oligonucleotide): 57% | percent inhibition of TGF-beta1 mRNA relative to untreated control cells ([6]; 1.25 nM oligonucleotide): 79% | percent inhibition of TGF-beta1 mRNA relative to untreated control cells ([6]; 2.5 nM oligonucleotide): 85% | percent inhibition of TGF-beta1 mRNA relative to untreated control cells ([6]; 5.00 nM oligonucleotide): 89% | percent inhibition of TGF-beta1 mRNA relative to untreated control cells ([6]; 10.00 nM oligonucleotide): 93% | percent inhibition of TGF-beta1 mRNA relative to untreated control cells ([6]; 20 nM oligonucleotide): 96% | tolerability compared to Oligo ID 105204 [7]: improved tolerability | alanine transaminase levels ([8]; 25 mg/kg twice a week, Week 2): 59 IU/L | alanine transaminase levels ([8]; 25 mg/kg twice a week, Week 4): 140 IU/L | aspartate transaminase levels ([8]; 25 mg/kg twice a week, Week 2): 74 IU/L | aspartate transaminase levels ([8]; 25 mg/kg twice a week, Week 4): 161 IU/L | alanine transaminase levels ([8]; 50 mg/kg twice a week, Week 2): 77 IU/L | alanine transaminase levels ([8]; 50 mg/kg twice a week, Week 4): 462 IU/L | aspartate transaminase levels ([8]; 50 mg/kg twice a week, Week 2): 92 IU/L | aspartate transaminase levels ([8]; 50 mg/kg twice a week, Week 4): 460 IU/L | increase in ALT/AST ([8]; 25 or 50 mg/kg twice a week for four weeks): < 16 fold
